Laboratory results reported in patent publication US20220132847A1, “CINNOLINIUM COMPOUNDS FOR USE IN A METHOD OF CONTROLLING UNWANTED PLANT GROWTH” (SYNGENTA CROP PROTECTION AG, priority 2019, published 2022).

What was measured:
Assay in all cases: Post-emergence efficacy, glasshouse
Format in all cases: in vivo
[1] = system: Digitaria sanguinalis (DIGSA); settings: Digitaria sanguinalis, post-emergence, 312 h, evaluated after 13 days, 100=total damage to plant, 0=no damage to plant, read-out: Control of weed species after post-emergence application, DIGSA; for pest or weed control at 1000 g/ha: Application Rate 1000 g/Ha; for pest or weed control at 500 g/ha: Application Rate 500 g/Ha
Protocol: (§1) Seeds of a variety of test species were sown in standard soil in pots. After cultivation for 14 days (post-emergence) under controlled conditions in a glasshouse (at 24/16° C., day/night; 14 hours light; 65% humidity), the plants were sprayed with an aqueous spray solution derived from the dissolution of the technical active ingredient formula (I) in a small amount of acetone and a special solvent and emulsifier mixture referred to as IF50 (11.12% Emulsogen EL360™+44.44% N-methylpyrrolidone+44.44% Dowanol DPM glycol ether), to create a 50 g/l solution which was then diluted to required concentration using 0.25% or 1% Empicol ESC70 (Sodium lauryl ether sulphate)+1% ammonium sulphate in water as diluent.
(§2) The test plants were then grown in a glasshouse under controlled conditions (at 24/16° C., day/night; 14 hours light; 65% humidity) and watered twice daily. After 13 days the test was evaluated (100=total damage to plant; 0=no damage to plant).
(§3) Ipomoea hederacea (IPOHE), Euphorbia heterophylla (EPHHL), Chenopodium album (CHEAL), Amaranthus palmeri (AMAPA), Lolium perenne (LOLPE), Digitaria sanguinalis (DIGSA), Eleusine indica (ELEIN), Echinochloa crus-galli (ECHCG), Setaria faberi (SETFA)

[2] = system: Chenopodium album (CHEAL); settings: Chenopodium album, post-emergence, 312 h, evaluated after 13 days, 100=total damage to plant, 0=no damage to plant, read-out: Control of weed species after post-emergence application, CHEAL; for pest or weed control at 1000 g/ha: Application Rate 1000 g/Ha; for pest or weed control at 500 g/ha: Application Rate 500 g/Ha
Protocol: as §1, §2, §3

Setaria faberi (SETFA) = settings: Setaria faberi, post-emergence, 312 h, evaluated after 13 days, 100=total damage to plant, 0=no damage to plant, read-out: Control of weed species after post-emergence application, SETFA; for pest or weed control at 1000 g/ha: Application Rate 1000 g/Ha; for pest or weed control at 500 g/ha: Application Rate 500 g/Ha
Protocol: as §1, §2, §3

[3] = system: Echinochloa crus-galli (ECHCG); settings: Echinochloa crus-galli, post-emergence, 312 h, evaluated after 13 days, 100=total damage to plant, 0=no damage to plant, read-out: Control of weed species after post-emergence application, ECHCG; for pest or weed control at 1000 g/ha: Application Rate 1000 g/Ha; for pest or weed control at 500 g/ha: Application Rate 500 g/Ha
Protocol: as §1, §2, §3

[4] = system: Amaranthus palmeri (AMAPA); settings: Amaranthus palmeri, post-emergence, 312 h, evaluated after 13 days, 100=total damage to plant, 0=no damage to plant, read-out: Control of weed species after post-emergence application, AMAPA; for pest or weed control at 1000 g/ha: Application Rate 1000 g/Ha; for pest or weed control at 500 g/ha: Application Rate 500 g/Ha
Protocol: as §1, §2, §3

[5] = system: Euphorbia heterophylla (EPHHL); settings: Euphorbia heterophylla, post-emergence, 312 h, evaluated after 13 days, 100=total damage to plant, 0=no damage to plant, read-out: Control of weed species after post-emergence application, EPHHL; for pest or weed control at 1000 g/ha: Application Rate 1000 g/Ha; for pest or weed control at 500 g/ha: Application Rate 500 g/Ha
Protocol: as §1, §2, §3

[6] = system: Ipomoea hederacea (IPOHE); settings: Ipomoea hederacea, post-emergence, 312 h, evaluated after 13 days, 100=total damage to plant, 0=no damage to plant, read-out: Control of weed species after post-emergence application, IPOHE; for pest or weed control at 1000 g/ha: Application Rate 1000 g/Ha; for pest or weed control at 500 g/ha: Application Rate 500 g/Ha
Protocol: as §1, §2, §3

Lolium perenne (LOLPE) = settings: Lolium perenne, post-emergence, 312 h, evaluated after 13 days, 100=total damage to plant, 0=no damage to plant, read-out: Control of weed species after post-emergence application, LOLPE; for pest or weed control at 1000 g/ha: Application Rate 1000 g/Ha; for pest or weed control at 500 g/ha: Application Rate 500 g/Ha
Protocol: as §1, §2, §3

Eleusine indica (ELEIN) = settings: Eleusine indica, post-emergence, 312 h, evaluated after 13 days, 100=total damage to plant, 0=no damage to plant, read-out: Control of weed species after post-emergence application, ELEIN; for pest or weed control at 1000 g/ha: Application Rate 1000 g/Ha; for pest or weed control at 500 g/ha: Application Rate 500 g/Ha
Protocol: as §1, §2, §3

SMILES | pest or weed control at 1000 g/ha [1] | pest or weed control at 1000 g/ha [2] | pest or weed control at 1000 g/ha (Setaria faberi (SETFA)) | pest or weed control at 1000 g/ha [3] | pest or weed control at 1000 g/ha [4] | pest or weed control at 1000 g/ha [5] | pest or weed control at 1000 g/ha [6] | pest or weed control at 1000 g/ha (Lolium perenne (LOLPE)) | pest or weed control at 1000 g/ha (Eleusine indica (ELEIN)) | pest or weed control at 500 g/ha [1] | pest or weed control at 500 g/ha [2] | pest or weed control at 500 g/ha (Setaria faberi (SETFA)) | pest or weed control at 500 g/ha [3] | pest or weed control at 500 g/ha [4] | pest or weed control at 500 g/ha [5] | pest or weed control at 500 g/ha [6] | pest or weed control at 500 g/ha (Lolium perenne (LOLPE)) | pest or weed control at 500 g/ha (Eleusine indica (ELEIN))
CS(=O)(=O)[N-]C(=O)c1c[n+](CC(=O)NS(C)(=O)=O)nc2ccccc12 [Compound A13] | 10% | 0% | 10% | 10% | 0% | 10% | 10% | 10% | 10% | – | – | – | – | – | – | – | – | –
C[n+]1cc(S(=O)(=O)[O-])c2ccccc2n1 [Compound A6, 2-methylcinnolin-2-ium-4-sulfonate] | 10% | 60% | 10% | 10% | 10% | 60% | 0% | 10% | 10% | – | – | – | – | – | – | – | – | –
C[n+]1cc(CCC(=O)O)c2ccccc2n1 [Compound A56, 3-(2-methylcinnolin-2-ium-4-yl)propanoic acid 2,2,2-trifluoroacetate] | – | – | – | – | – | – | – | – | – | 100% | 90% | 60% | 70% | 100% | 40% | 30% | 10% | 70%
CNS(=O)(=O)[N-]C(=O)c1c[n+](C)nc2ccccc12 [Compound A10, 2-methyl-N-(methylsulfamoyl)cinnolin-2-ium-4-carboxamide] | 70% | 70% | 50% | 50% | 80% | 70% | 30% | 30% | 60% | – | – | – | – | – | – | – | – | –
C[n+]1cc(SCC(=O)O)c2ccccc2n1 [Compound A57, 2-(2-methylcinnolin-2-ium-4-yl)sulfanylacetic acid chloride] | 30% | 40% | 30% | 10% | 40% | 20% | 10% | 10% | 40% | – | – | – | – | – | – | – | – | –
C[n+]1cc(P(C)(=O)O)c2ccccc2n1 [Compound A31] | 100% | 80% | 90% | 60% | 100% | 100% | 90% | 70% | 100% | – | – | – | – | – | – | – | – | –
COP(=O)(OC)c1c[n+](CCOS(=O)(=O)[O-])nc2ccccc12 [Compound A70] | 70% | 60% | 20% | 70% | 50% | 60% | 30% | 10% | 80% | – | – | – | – | – | – | – | – | –
C[n+]1cc(C(=O)Nc2nncs2)c2ccccc2n1 [Compound A26] | 0% | 40% | 10% | 20% | 20% | 20% | 30% | 10% | 20% | – | – | – | – | – | – | – | – | –
C[n+]1nc2ccccc2c(C(=O)[O-])c1-c1ccccc1 [Compound A60] | 90% | 100% | 70% | 50% | 100% | 100% | 100% | 40% | 100% | – | – | – | – | – | – | – | – | –
CC(C)OP(=O)([O-])c1c[n+](C(C)(C)C)nc2ccccc12 [Compound A74] | – | – | – | – | – | – | – | – | – | 20% | 60% | 20% | 10% | 100% | 50% | 50% | 30% | 60%
CC[n+]1cc(P(=O)([O-])OC)c2ccccc2n1 [Compound A65] | 90% | 90% | 80% | 50% | 90% | 100% | 70% | 40% | 80% | – | – | – | – | – | – | – | – | –
C[C@@H](NC(=O)c1c[n+](C)nc2ccccc12)C(=O)OC(C)(C)C [Compound A8, tert-butyl (2R)-2-[(2-methylcinnolin-2-ium-4-carbonyl)amino]propanoate iodide] | 20% | 30% | 10% | 20% | 20% | 30% | 10% | 20% | 10% | – | – | – | – | – | – | – | – | –
O=C(O)c1c[n+](CCO)nc2ccccc12 [Compound A30] | 90% | 100% | 70% | 50% | 100% | 100% | 100% | 40% | 80% | – | – | – | – | – | – | – | – | –
C[n+]1cc(P(C)(=O)O)c2ccccc2n1 [Compound A7] | – | 100% | 70% | 70% | – | 90% | 70% | 40% | 80% | – | – | – | – | – | – | – | – | –
